The text below walks through data of paper PMC11413854, “Reversible Control of Native GluN2B-Containing NMDA Receptors with Visible Light” (ACS Chemical Neuroscience, 2024).

Like-named read-outs stand apart in the source and are kept apart here.

The target of the assay is T1, GluN1/GluN2B NMDA receptors (UniProt P35439+Q01097).
T1 construct: expressed in transfected cells; host or cells: Xenopus laevis oocytes (nuclear cDNA injection)
Kind of assay: TEVC electrophysiology on Xenopus oocytes expressing wt GluN1/GluN2B NMDARs. The assay is classed as cell-based, rat GluN1, mouse GluN2B. Conditions: for remaining activity at 2 µM / remaining activity at 7.5 µM / remaining activity at 10 µM / remaining activity at 25 µM / remaining activity at 70 µM / remaining activity at 1 µM / remaining activity at 5 µM / remaining activity at 50 µM / remaining activity at 90 µM / remaining activity at 100 µM: GluN1/GluN2B wt, read-out: Relative current (IOpto/I0); for UV/dark IC50 ratio (365 nm PSS vs dark): preilluminated in solution; for shift in IC50 compared to parent compound: trans configuration (dark). An excerpt: The activity of OptoNAM-3 was functionally monitored by electrophysiology on Xenopus oocytes (see Methods). To assess the light-dependent effect, we tested the activities of the dark PSS (mostly trans) and the UV PSS (mostly cis, see above) separately. For each concentration, we prepared a solution divided into two samples: one in which the compound was kept in the dark for the duration of the experiment (dark PSS state); and the other that was preilluminated with either 350 or 365 nm light (350 or 365 nm PSS) and then kept away from the light for the duration of the experiment in order to avoid photoisomerization of the compounds by ambient light (see Methods). […] We generated dose–response curves of OptoNAM-3 dark and UV PSS on wild-type (wt) GluN1/GluN2B NMDA receptors (Figure 3A) in the presence of saturating concentrations of agonists (100 μM glutamate and glycine).
We used cDNA coding for rat GluN1–1a (named GluN1 herein) (GenBank: U08261.1), rat GluN2A (GenBank: D13211.1), mouse GluN2B (GenBank: D10651.2), rat GluA1 flop (GenBank: M36418.2), and rat Myc-GluA2(Q)-flip (GenBank: AF164344.1) cloned into pcDNA3-based expression plasmids. GluK2 (GenBank: Z11548.1) corresponds to the fully RNA-edited version.[80] The GluN2B-ΔNTD construct is from ref[45] and GluN2B–N615K is from ref[81]. Single mutants GluN2B-Q110G and GluN1-L135H were from ref[19]. The GluA2 cDNA contains a Myc tag ([…]) fused between the signal peptide and the N-terminus sequences, and the GluA2 subunit is […] for its Q/R/N site (GluA2(Q)) to allow permeation of homomeric GluA2 receptors.[2] cDNAs coding for rat GluN2C (GenBank: M91563.1) and GluN2D subunits (GenBank: L31611.1) were in prK5 plasmids.
Oocytes from Xenopus laevis were used for heterologous expression of recombinant NMDA receptors studied using a two-electrode voltage clamp (TEVC). Female Xenopus laevis were housed and ovary bags harvested according to the European Union guidelines (husbandry authorizations #C75–05–31 and #D75–05–31; project authorizations #05137.02; and Apafis #28867–2020121814485893). Fragments of ovary bags were also purchased from the “Centre de Ressources Biologiques Xenopes” (now TEFOR, Paris Saclay, France) and from the European Xenopus Resource Center (EXRC, Portsmouth, UK). Xenopus laevis oocytes were harvested and prepared as previously described in ref[82].
Expression of recombinant NMDA receptors was obtained by oocyte nuclear coinjection of 37 nL of a mixture of cDNAs (at 30 ng/μL) coding for GluN1–1a and various GluN2 subunits (ratio 1:1). The protocol in ref[43] was followed for the expression of GluN1/GluN2A/GluN2B triheteromers. The oocytes were transferred in 96-well plates filled with Barth solution (in mM: 88 NaCl, 1 KCl, 0.33 Ca(NO3)2, 0.41 CaCl2, 0.82 MgSO4, 2.4 NaHCO3, and 7.5 HEPES, pH adjusted to 7.3 with NaOH), supplemented with gentamicin ([…]) and 50 μM APV, a selective NMDA receptor antagonist. Plates were then stored at 18 °C for 24 h for GluN1/GluN2A expression and for 48––72 h for the expression of GluN1/Glu2B, GluN1/GluN2A/GluN2B, and mutants.
TEVC recordings were performed 1–3 days following injection. TEVC recordings were performed using an Oocyte Clamp amplifier OC-725 (Warner Instruments) and computer-controlled via a 1440A Digidata (Molecular Devices). Currents were sampled at 100 Hz and low-pass-filtered at 20 Hz using an 8-pole Bessel filter (900 Series, Frequency Devices Inc.).

Where [1] appears, read: 365 nm PSS, 100 µM glutamate + glycine, Xenopus oocytes, read-out: IC50 on GluN1/GluN2B receptors, preilluminated with 365 nm.
Where [2] appears, read: Sup. Fig. 2G, trans isomer, source: this paper, read-out: activity (Ki or IC50).

T1 sequence (Q01097 27-1482, other chains not shown): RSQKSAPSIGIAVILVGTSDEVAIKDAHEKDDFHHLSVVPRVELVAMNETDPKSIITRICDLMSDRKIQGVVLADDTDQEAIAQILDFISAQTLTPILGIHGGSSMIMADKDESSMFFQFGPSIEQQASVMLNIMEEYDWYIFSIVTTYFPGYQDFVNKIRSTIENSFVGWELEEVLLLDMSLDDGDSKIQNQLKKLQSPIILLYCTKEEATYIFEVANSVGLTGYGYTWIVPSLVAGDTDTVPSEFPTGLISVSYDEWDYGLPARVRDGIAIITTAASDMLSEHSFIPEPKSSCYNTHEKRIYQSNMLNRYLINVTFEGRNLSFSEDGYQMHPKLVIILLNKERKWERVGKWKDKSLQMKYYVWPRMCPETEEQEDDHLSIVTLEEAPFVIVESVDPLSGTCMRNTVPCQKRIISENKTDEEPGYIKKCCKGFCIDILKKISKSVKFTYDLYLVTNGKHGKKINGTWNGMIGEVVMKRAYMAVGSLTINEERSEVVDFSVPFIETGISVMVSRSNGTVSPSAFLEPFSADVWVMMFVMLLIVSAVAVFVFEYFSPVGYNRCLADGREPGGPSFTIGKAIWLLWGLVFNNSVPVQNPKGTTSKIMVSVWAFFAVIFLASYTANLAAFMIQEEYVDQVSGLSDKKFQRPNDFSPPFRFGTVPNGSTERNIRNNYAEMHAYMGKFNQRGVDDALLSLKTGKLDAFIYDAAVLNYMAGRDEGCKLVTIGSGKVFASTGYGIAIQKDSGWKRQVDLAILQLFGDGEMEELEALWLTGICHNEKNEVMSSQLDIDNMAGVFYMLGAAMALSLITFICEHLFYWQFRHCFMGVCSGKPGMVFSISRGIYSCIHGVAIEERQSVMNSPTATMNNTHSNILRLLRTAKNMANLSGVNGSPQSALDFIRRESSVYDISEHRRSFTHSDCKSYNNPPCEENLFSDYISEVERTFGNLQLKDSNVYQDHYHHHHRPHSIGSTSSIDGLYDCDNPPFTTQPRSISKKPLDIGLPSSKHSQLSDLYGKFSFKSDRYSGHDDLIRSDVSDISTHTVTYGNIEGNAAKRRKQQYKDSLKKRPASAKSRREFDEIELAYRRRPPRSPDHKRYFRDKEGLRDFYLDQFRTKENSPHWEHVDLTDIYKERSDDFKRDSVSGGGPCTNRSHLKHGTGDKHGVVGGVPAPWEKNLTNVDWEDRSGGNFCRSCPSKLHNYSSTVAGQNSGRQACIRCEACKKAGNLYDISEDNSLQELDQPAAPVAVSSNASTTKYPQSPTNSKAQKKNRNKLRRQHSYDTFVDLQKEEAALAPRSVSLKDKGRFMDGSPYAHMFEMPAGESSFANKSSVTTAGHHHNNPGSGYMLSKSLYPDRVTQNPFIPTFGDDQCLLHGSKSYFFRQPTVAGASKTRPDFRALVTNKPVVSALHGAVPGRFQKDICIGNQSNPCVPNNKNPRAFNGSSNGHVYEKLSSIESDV

With `Nc1ccnc(/N=N/c2ccccc2)c1` [OptoNAM-1, (E)-2-(phenyldiazenyl)pyridin-4-amine], the “shift in IC50 compared to parent compound” value was greater than 1000 fold. Moreover, the IC50 under setting [1] came to 37 ± 2 µM. In addition, for the setting “365 nm PSS”, the remaining activity at 2 µM turned out to be 91.1%, the remaining activity at 7.5 µM is 81.8%, the remaining activity at 10 µM was determined as 78% and the remaining activity at 25 µM worked out at 58.1%. Also, for the setting “365 nm PSS”, the remaining activity at 70 µM came out at 35%. Besides, where the note is “dark PSS (trans)”, the remaining activity at 2 µM came to 83.8%, the remaining activity at 7.5 µM turned out to be 66.1%, the remaining activity at 10 µM is 49.9% and the remaining activity at 25 µM came to 28.4%. In addition, the remaining activity at 70 µM (dark PSS (trans)) was 13.4%. For the same compound, under setting [2], the IC50 came to 11 µM. Further, under “Xenopus oocytes”, the “UV/dark IC50 ratio (365 nm PSS vs dark)” value is listed as 3.4 fold.

Consider `Cc1cc(N)nc(/N=N/c2ccccc2)c1` [OptoNAM-2, (E)-4-methyl-6-(phenyldiazenyl)pyridin-2-amine], for which the “shift in IC50 compared to parent compound” value is given as greater than 1000 fold. Besides, the IC50 under setting [1] is 117 ± 10 µM. Further, where the note is “365 nm PSS”, the remaining activity at 1 µM was determined as 94.5%, the remaining activity at 5 µM was 92.7%, the remaining activity at 10 µM worked out at 90% and the remaining activity at 25 µM worked out at 84.2%. For the setting “365 nm PSS”, the remaining activity at 50 µM was determined as 63.5%, the remaining activity at 90 µM is 50% and the remaining activity at 100 µM was 49.3%. Also, under “dark PSS (trans)”, the remaining activity at 1 µM was determined as 92.5%, the remaining activity at 5 µM worked out at 84.8%, the remaining activity at 10 µM was 75.5% and the remaining activity at 25 µM stood at 47.3%. Further, under “dark PSS (trans)”, the remaining activity at 50 µM was found to be 31.1%, the remaining activity at 90 µM amounted to 22.1% and the remaining activity at 100 µM came to 14.4%. Under setting [2], the IC50 amounted to 24 µM. In addition, the “UV/dark IC50 ratio (365 nm PSS vs dark)” value (Xenopus oocytes) was found to be 4.9 fold.
